Results reported in patent US12215127B2 (priority 2020, dated 2025).

Target: Clostridium perfringens CGH (Clostridium perfringens, UniProt P54965)
Assay type: binding
Conditions: 0-500 μM, 37° C., 24 h, in-gel fluorescence

Clostridium perfringens CGH, sequence (P54965 whole entry, looked up): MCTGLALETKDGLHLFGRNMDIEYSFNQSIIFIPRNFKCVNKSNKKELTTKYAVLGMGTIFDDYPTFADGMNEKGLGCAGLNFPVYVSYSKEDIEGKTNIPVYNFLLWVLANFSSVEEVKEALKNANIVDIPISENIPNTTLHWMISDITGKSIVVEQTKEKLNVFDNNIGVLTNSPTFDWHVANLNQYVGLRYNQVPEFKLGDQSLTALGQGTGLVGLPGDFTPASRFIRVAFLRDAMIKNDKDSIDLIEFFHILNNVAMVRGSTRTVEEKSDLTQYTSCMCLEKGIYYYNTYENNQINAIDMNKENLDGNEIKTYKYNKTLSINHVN

Row | Structure (SMILES) | labeling of C. perfringens BSH
1 | Cc1cccc(C)c1C(=O)OCC(=O)CC[C@@H](C)[C@H]1CC[C@H]2[C@@H]3[C@H](O)C[C@@H]4C[C@H](N=[N+]=[N-])CC[C@]4(C)[C@H]3CC[C@]12C [CDCA-AOMK, N3-CDCA-AOMK] | label Clostridium perfringens bile salt hydrolase (BSH)
2 | Cc1cccc(C)c1C(=O)OCC(=O)CC[C@@H](C)[C@H]1CC[C@H]2[C@@H]3CC[C@@H]4C[C@H](N=[N+]=[N-])CC[C@]4(C)[C@H]3C[C@H](O)[C@]12C [DCA-AOMK, N3-DCA-AOMK] | label Clostridium perfringens bile salt hydrolase (BSH)
